Measured values published in paper PMC8524670 (Pharmacology Research & Perspectives, 2021).

Legend:
[1] = test system: CYP3A; assay: Time-dependent CYP inhibition in HLMs; conditions: 10 µM zanubrutinib, 30 min pre-incubation with HLMs and NADPH
[2] = biological target: T1, OATP1B3 (Homo sapiens, UniProt Q9NPD5); assay: SLC inhibition assay in HEK293 cells; format: in vitro ADME; conditions: 0.05–5 µM
T1 sequence (Q9NPD5 1-702): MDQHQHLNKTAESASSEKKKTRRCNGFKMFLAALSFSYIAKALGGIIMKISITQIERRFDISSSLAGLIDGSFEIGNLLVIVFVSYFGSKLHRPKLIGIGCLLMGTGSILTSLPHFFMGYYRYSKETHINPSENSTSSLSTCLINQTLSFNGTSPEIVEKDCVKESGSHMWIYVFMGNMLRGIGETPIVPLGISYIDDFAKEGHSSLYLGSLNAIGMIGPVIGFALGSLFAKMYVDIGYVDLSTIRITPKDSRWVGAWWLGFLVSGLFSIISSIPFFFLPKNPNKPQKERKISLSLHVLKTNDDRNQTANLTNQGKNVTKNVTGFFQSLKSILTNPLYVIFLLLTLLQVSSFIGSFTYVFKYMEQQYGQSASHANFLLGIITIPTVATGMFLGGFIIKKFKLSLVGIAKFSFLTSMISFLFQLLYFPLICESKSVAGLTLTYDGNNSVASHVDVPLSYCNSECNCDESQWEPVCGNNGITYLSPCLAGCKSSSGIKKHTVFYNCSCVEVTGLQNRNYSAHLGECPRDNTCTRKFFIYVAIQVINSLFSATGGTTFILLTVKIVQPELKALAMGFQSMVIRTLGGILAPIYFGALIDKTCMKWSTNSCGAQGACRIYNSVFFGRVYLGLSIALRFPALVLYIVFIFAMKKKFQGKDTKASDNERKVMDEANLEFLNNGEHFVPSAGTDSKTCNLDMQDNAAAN

[3] = test system: CYP1A2; conditions: DDI basic model value for induction
[4] = biological target: P-gp (Homo sapiens, UniProt P08183); conditions: coadministration of zanubrutinib; cited from earlier work
P-gp, sequence (P08183 whole entry): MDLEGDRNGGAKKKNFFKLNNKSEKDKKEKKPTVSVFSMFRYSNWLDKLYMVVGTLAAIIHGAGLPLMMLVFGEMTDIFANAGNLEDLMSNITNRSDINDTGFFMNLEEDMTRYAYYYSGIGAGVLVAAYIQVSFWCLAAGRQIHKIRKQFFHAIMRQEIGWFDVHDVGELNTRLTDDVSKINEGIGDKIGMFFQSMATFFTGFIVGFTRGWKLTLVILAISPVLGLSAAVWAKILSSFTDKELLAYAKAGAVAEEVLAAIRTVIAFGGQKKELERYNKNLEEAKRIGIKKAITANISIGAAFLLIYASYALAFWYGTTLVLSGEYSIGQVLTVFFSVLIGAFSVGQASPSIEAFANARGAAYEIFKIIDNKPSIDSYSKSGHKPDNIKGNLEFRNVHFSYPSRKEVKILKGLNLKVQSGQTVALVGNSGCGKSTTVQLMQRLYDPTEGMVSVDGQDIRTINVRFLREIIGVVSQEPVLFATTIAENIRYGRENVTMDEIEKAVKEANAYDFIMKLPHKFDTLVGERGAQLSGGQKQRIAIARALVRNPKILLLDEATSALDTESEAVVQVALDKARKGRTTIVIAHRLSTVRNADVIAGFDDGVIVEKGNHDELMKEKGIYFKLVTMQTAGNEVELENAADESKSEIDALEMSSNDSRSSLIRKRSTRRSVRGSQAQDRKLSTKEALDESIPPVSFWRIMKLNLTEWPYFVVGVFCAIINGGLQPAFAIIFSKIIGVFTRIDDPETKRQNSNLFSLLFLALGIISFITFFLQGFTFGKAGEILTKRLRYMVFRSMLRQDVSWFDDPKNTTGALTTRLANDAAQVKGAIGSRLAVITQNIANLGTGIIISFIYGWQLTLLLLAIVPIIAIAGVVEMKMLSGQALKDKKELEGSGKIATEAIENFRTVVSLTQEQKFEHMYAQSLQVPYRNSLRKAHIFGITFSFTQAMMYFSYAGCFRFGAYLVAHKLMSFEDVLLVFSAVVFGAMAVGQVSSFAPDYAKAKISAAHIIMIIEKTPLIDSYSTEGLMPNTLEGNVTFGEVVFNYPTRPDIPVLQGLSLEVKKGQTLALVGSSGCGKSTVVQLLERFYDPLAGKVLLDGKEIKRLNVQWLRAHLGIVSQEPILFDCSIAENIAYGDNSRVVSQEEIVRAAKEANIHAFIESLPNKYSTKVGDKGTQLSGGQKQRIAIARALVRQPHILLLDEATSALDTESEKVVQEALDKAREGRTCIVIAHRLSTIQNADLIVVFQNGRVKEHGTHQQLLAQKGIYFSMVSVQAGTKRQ

[5] = test system: CYP3A; conditions: cited from earlier work
[6] = biological target: T2, human BCRP (Homo sapiens, UniProt Q9UNQ0); assay: BCRP inhibition in vesicles; format: in vitro ADME; conditions: 0.05–5 µM
T2 sequence (Q9UNQ0 1-655): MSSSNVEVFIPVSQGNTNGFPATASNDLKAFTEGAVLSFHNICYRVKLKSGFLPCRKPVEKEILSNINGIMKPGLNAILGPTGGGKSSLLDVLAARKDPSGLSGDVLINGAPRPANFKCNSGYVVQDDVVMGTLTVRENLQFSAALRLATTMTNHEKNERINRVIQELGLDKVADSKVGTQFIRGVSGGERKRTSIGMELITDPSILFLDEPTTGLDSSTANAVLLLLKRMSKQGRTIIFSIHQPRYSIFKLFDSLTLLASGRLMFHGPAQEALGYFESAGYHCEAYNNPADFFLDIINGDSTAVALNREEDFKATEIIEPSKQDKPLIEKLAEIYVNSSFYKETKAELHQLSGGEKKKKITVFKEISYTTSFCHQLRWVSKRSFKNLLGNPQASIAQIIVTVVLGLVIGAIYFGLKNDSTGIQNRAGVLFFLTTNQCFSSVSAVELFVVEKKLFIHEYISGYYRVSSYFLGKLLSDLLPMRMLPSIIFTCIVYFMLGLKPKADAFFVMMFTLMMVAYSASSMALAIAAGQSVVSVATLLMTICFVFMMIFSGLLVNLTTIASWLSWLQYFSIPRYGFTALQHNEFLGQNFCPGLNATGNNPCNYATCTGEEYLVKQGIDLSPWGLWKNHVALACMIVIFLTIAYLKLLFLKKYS

[7] = biological target: T3, OAT1 (Homo sapiens, UniProt Q4U2R8); assay: SLC transportation assay in HEK293 cells; conditions: uptake ratios <2 at 0.1, 0.3, 5 µM
T3 sequence (Q4U2R8 1-563): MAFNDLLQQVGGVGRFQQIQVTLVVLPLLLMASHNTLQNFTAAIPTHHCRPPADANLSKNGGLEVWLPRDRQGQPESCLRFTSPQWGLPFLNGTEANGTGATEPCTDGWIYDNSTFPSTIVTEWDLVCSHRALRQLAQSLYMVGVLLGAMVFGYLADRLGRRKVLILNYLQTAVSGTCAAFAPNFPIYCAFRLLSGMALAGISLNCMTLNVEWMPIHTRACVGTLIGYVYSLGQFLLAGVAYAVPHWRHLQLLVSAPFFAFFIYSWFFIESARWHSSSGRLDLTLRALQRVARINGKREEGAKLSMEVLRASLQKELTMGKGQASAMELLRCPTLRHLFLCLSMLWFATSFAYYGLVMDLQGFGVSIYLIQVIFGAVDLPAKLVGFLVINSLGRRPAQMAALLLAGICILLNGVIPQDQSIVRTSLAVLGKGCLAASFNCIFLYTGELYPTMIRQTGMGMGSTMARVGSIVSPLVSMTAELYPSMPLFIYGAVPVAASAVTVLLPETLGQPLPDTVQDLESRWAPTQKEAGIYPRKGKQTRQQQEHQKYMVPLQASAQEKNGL

[8] = biological target: CYP2C9 (Homo sapiens, UniProt P11712); assay: CYP reversible inhibition in HLMs; conditions: diclofenac
CYP2C9, sequence (P11712 whole entry): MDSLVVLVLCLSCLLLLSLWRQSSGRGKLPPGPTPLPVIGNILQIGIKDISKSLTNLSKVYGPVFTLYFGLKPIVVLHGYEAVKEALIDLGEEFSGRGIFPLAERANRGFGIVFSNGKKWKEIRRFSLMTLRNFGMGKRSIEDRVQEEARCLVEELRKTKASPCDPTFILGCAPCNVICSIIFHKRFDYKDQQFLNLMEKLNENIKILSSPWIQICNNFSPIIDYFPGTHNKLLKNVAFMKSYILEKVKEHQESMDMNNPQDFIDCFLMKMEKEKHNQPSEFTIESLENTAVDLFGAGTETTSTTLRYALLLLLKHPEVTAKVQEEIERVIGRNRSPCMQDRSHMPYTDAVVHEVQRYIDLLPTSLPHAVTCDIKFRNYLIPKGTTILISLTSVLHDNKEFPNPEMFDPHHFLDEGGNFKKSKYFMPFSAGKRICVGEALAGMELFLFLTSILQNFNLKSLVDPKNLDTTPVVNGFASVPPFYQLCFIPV

[9] = biological target: T3, OAT1; assay: SLC inhibition assay in HEK293 cells
[10] = test system: CYP3A4
[11] = biological target: rCYP3A4 (Homo sapiens, UniProt P08684); assay: CYP phenotyping with recombinant CYPs; conditions: 1 μM, only rCYP3A4 among 7 rCYPs
rCYP3A4, sequence (P08684 whole entry): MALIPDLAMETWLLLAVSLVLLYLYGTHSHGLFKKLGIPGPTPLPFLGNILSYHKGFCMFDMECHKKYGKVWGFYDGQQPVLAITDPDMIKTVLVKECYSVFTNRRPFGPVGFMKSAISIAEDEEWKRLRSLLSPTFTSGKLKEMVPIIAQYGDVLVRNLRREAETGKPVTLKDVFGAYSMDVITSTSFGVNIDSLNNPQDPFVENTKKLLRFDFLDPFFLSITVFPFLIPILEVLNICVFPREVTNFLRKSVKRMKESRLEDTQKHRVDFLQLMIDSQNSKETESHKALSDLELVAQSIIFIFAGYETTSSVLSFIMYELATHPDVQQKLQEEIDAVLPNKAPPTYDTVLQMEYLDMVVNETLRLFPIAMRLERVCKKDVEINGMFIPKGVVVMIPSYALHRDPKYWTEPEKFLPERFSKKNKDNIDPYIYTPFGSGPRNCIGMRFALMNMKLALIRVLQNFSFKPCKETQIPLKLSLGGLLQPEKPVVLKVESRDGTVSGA

[12] = test system: CYP3A4; conditions: coadministration of zanubrutinib; cited from earlier work
[13] = test system: CYP2C19; conditions: coadministration of zanubrutinib; cited from earlier work

## C=CC(=O)N1CCC([C@@H]2CCNc3c(C(N)=O)c(-c4ccc(Oc5ccccc5)cc4)nn32)CC1 [zanubrutinib]
[1]
  Percent loss of enzymatic activity: 19.2%
[2]
  Inhibition of uptake activity: not inhibited
[3]
  R 3: 0.37
[4]
  Increase of C max of P-gp probe digoxin: 34%
[5]; co-administered with CYP3A inducer rifampin
  Reduction in AUC0‐inf of zanubrutinib: 13.5 fold
[5]; co-administered with CYP3A inhibitor itraconazole
  Increase in AUC0‐inf of zanubrutinib: 3.8 fold
[6]
  BCRP inhibition: did not inhibit BCRP activity
[7]
  Substrate status: unlikely to be a substrate
[8]; DDI basic model, hepatic
  R1: 1.04
[8]; static model term, liver inhibition
  Ah: 0.96
[9]; 0.05–5 µM
  Inhibition of uptake activity: not inhibited
[9]; human
  activity at 0.05 µM: 103 ± 5.6%
  activity at 0.2 µM: 106 ± 7.8%
  activity at 1 µM: 109 ± 3.9%
  activity at 5 µM: 109 ± 3.3%
[10]; DDI basic model value for induction
  R 3: 0.23
[10]; static model term, induction in gut
  Cg: 14.6
[10]; static model term, induction in liver
  Ch: 1.77
[11]
  Disappearance of zanubrutinib with recombinant CYP: remarkable disappearance
[12]
  Reduction of AUC of CYP3A probe midazolam: 47.5%
[13]
  Reduction of AUC of CYP2C19 probe omeprazole: 36.5%
